Structures are written as SMILES.

For 59 compounds, IC50 results are on record in patent US7517998B2, “Non nucleoside reverse transcriptase inhibitors” (priority 2004, dated 2009).

The first assay addresses T1, K103NNY181C mutant reverse transcriptase (Human immunodeficiency virus type 1 group M subtype B, UniProt P04585, K690N/Y768C).
T1 construct: mutations that occur in the reverse transcriptase segment of the pol gene
In words: Reverse transcriptase enzymatic assay (PicoGreen), K103N/Y181C mutant RT. To be noted: IC50 mut (nM), mutant (K103N/Y181C) reverse transcriptase, enzymatic assay of Example 24. Type of assay: biochemical, HIV-1. An outline of the steps: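 HIV-1 RT (2.5 nM final) pre-incubated 15 min at room temperature with inhibitor, then reacted 50 min at 37 °C with poly rC 45 nM, dG15 4.5 nM, dGTP 3.6 μM in Tris/HCl pH 7.8, 1% DMSO. Final inhibitor 10 μM to 0.508 nM; EDTA-quenched, PicoGreen fluorescence read at 485/520 nm.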
Broadly, the IC50 is the concentration at which inhibition is half-maximal. A higher IC50 goes with lower potency. As to `COc1ccc(CC(=O)Nc2ccc(NC(=O)CSc3nnnn3-c3ccc(C(C)(C)C)cc3Cl)c(Cl)c2)cc1` [Compound 7015], the IC50 came out at 189 nM.

With `COc1ccccc1CC(=O)Nc1ccc(NC(=O)CSc2nnnn2-c2ccc(C(C)(C)C)cc2Cl)c(Cl)c1` [Compound 7018], the midpoint of inhibition, the IC50, lay at 100 nM.

`CC(C)(C)c1ccc(-n2nnnc2SCC(=O)Nc2ccc(NC(=O)c3ccccc3)cc2Cl)c(Cl)c1` [Compound 7005]: the IC50 was determined as 106 nM. On the same count and under the same terms, to `CC(C)(C)c1ccc(-n2nnnc2SCC(=O)Nc2ccc(NC(=O)C3CCCCC3)cc2Cl)c(Cl)c1` [Compound 7022] belongs 629 nM; to `CCOC(=O)c1ccc(NC(=O)Nc2ccc(NC(=O)CSc3nnnn3-c3ccc(C(C)(C)C)cc3Cl)c(Cl)c2)cc1` [Compound 7006], 74 nM.

Turning to `CC(C)(C)c1ccc(-n2nnnc2SCC(=O)Nc2ccc(NC(=O)CCC(=O)O)cc2Cl)c(Cl)c1` [Compound 7028], half-maximal inhibition (IC50) required 123 nM.

Still in this assay, the particulars now being: IC50 mut, K103N/Y181C mutant reverse transcriptase, enzymatic assay of Example 24.
For the compound `CC(C)(C#Cc1ccc(NC(=O)CSc2nnnn2-c2cc(C(F)(F)F)ccc2Cl)c(Cl)c1F)NC(=O)c1cc[n+]([O-])cc1` [Compound 4164], the IC50 worked out at 18.5 nM. On the same count and under the same terms, the figure for `CC(C)(C#Cc1ccc(NC(=O)CSc2nnnn2-c2cc(C(F)(F)F)ccc2Cl)c(Cl)c1)NC(=O)c1cc[n+]([O-])cc1` [Compound 4120] is 17.5 nM; for `CC(C)(C#Cc1ccc(NC(=O)CSc2nnnn2-c2ccc(C3CC3)cc2Cl)c(Cl)c1)NC(=O)CNCCCn1ccnc1` [Compound 4127] it is 20.5 nM. On the same count and under the same terms, to `C[C@H](CC(=O)O)C(=O)NC(C)(C)C#Cc1ccc(NC(=O)CSc2nnnn2-c2ccc(C3CC3)cc2Cl)c(Cl)c1` [Compound 4239] belongs 8.2 nM.

Consider `CN(C)CCCC(=O)NC(C)(C)C#Cc1ccc(NC(=O)CSc2nnnn2-c2cc(C(F)(F)F)ccc2Cl)c(Cl)c1F` [Compound 4170], for which the IC50 was found to be 33.5 nM. On the same count and under the same terms, to `CC(C)(C#Cc1ccc(NC(=O)CSc2nnnn2-c2cc(Br)ccc2Cl)c(Cl)c1)C(=O)O` [Compound 4218] belongs 31.5 nM; to `CC(C)(C#Cc1ccc(NC(=O)CSc2nnnn2-c2ccc(C(C)(C)C)cc2Cl)c(Cl)c1)C(=O)NCCN1CCOCC1` [Compound 4013], 62 nM; to `CC(C)(C)c1ccc(-n2nnnc2SCC(=O)Nc2ccc(C#CCO)cc2Cl)c(Cl)c1` [Compound 4006], 11 nM. The same measure, in the same setting: to `CC(C)(C#Cc1ccc(NC(=O)CSc2nnnn2-c2ccc(C3CC3)cc2Cl)c(Cl)c1)NC(=O)c1ccc[n+]([O-])c1` [Compound 4191] belongs 4.75 nM. The same measure, in the same setting: the figure for `CC(C)(C#Cc1ccc(NC(=O)CSc2nnnn2-c2ccc(CC3CC3)cc2Cl)c(Cl)c1)NC(=O)c1cc[n+]([O-])cc1` [Compound 4247] is 19 nM.

`CC(C)(C#Cc1ccc(NC(=O)CSc2nnnn2-c2cc(C3CC3)ccc2Cl)c(Cl)c1)C(=O)O` [Compound 4174] had an IC50 of 34 nM.

`CC(C)(C#Cc1ccc(NC(=O)CSc2nnnn2-c2ccc(C3CC3)cc2Cl)c(Cl)c1)OCCN` [Compound 4190] registered an IC50 of 59.5 nM. On to `CC(C)(C#Cc1ccc(NC(=O)CSc2nnnn2-c2cc(C(C)(C)C)ccc2Cl)c(Cl)c1)C(=O)O` [Compound 4200], for which the concentration for half-maximal inhibition (IC50) was 35.5 nM. As to `CC(C)(C#Cc1ccc(NC(=O)CSc2nnnn2-c2ccc(C(C)(C)C)cc2Cl)c(Cl)c1)OCC(=O)NCCC(=O)O` [Compound 4055], 15 nM corresponded to half-maximal inhibition (IC50).

As for `CC(C)(C#Cc1ccc(NC(=O)CSc2nnnn2-c2cc(C(F)(F)F)ccc2Cl)c(Cl)c1)NC(=O)C1CC1` [Compound 4140], half-maximal inhibition (IC50) required 51 nM.

Regarding `CC(C)(C#Cc1ccc(NC(=O)CSc2nnnn2-c2ccc(C3CC3)cc2Cl)c(Cl)c1)NC(=O)N1CCNCC1` [Compound 4228], the IC50 stood at 30 nM. The same measure, in the same setting: the figure for `CC(C)(C)c1ccc(-n2nnnc2SCC(=O)Nc2ccc(C#CCN3CCOCC3)cc2Cl)c(Cl)c1` [Compound 4010] is 27 nM; for `CC(C)(C#Cc1ccc(NC(=O)CSc2nnnn2-c2ccc(C(C)(C)C)cc2Cl)c(Cl)c1)OCC(=O)NCCO` [Compound 4048] it is 26 nM. Still for that read-out and setting: to `C#Cc1ccc(NC(=O)CSc2nnnn2-c2ccc(C(C)(C)C)cc2Cl)c(Cl)c1` [Compound 4089] belongs 69 nM. `CC(C)(C#Cc1ccc(NC(=O)CSc2nnnn2-c2ccc(C3CC3)cc2Cl)c(Cl)c1)NS(C)(=O)=O` [Compound 4076] gave a half-maximal inhibitory concentration (IC50) of 17.5 nM.

`O=C(CSc1nnnn1-c1ccc(C2CC2)cc1Cl)Nc1ccc(C#CCCN2CCCC2)cc1Cl` [Compound 4132] gave an IC50 of 49.5 nM. On to `CC(C)(C#Cc1ccc(NC(=O)CSc2nnnn2-c2ccccc2Cl)c(Cl)c1)C(=O)O` [Compound 4207], for which the IC50 stood at 442 nM. `CC(C)(O)C#Cc1ccc(NC(=O)CSc2nnnn2-c2cc(C(C)(C)C)ccc2Cl)c(Cl)c1` [Compound 4199] gave an IC50 of 32 nM. `CC(C)(C#Cc1ccc(NC(=O)CSc2nnnn2-c2ccc(C3CC3)cc2Cl)c(Cl)c1)C(=O)NCCCN1CCCC1=O` [Compound 4152] had an IC50 of 36.5 nM. Same read-out and setting: to `CC(C)(C#Cc1ccc(NC(=O)CSc2nnnn2-c2ccc(C3CC3)cc2Cl)c(Cl)c1)OCC(N)=O` [Compound 4064] belongs 11.5 nM. With `CCCC#Cc1ccc(NC(=O)CSc2nnnn2-c2ccc(C(C)(C)C)cc2Cl)c(Cl)c1` [Compound 4009], it took 8.9 nM to reach half-maximal inhibition (IC50). On the same count and under the same terms, to `CC(C)(C#Cc1ccc(NC(=O)CSc2nnnn2-c2ccc(C3CC3)cc2Cl)c(Cl)c1)NC(=O)CN1CCN(CCn2cccc2)CC1` [Compound 4126] belongs 78 nM; to `CC(C)(C#Cc1ccc(NC(=O)CSc2nnnn2-c2ccc(C3CC3)cc2Cl)c(Cl)c1F)OCCOc1ccc[n+]([O-])c1` [Compound 4215], 56.5 nM; to `CC(C)(C#Cc1ccc(NC(=O)CSc2nnnn2-c2ccc(C3CC3)cc2Cl)c(Cl)c1)NC(=O)CNc1cc[n+]([O-])cc1` [Compound 4193], 29 nM.

With `CC(C)(C#Cc1ccc(NC(=O)CSc2nnnn2-c2ccc(C3CC3)cc2Cl)c(Cl)c1)C(=O)N1CCC(C(=O)O)CC1` [Compound 4149], the IC50 amounted to 16.5 nM.

The same assay, now with this note: IC50 mut, mutant reverse transcriptase, enzymatic assay of Example 24.
Consider `O=C(O)Cc1ccc(-c2ccc(NC(=O)CSc3nnnn3-c3ccc4ccccc4c3Cl)c(Cl)c2)cc1` [Compound 2030], for which half-maximal inhibition (IC50) required 64 nM. The same measure, in the same setting: to `CC(C)(C)c1ccc(-n2nnnc2SCC(=O)Nc2ccc(OCCN3CCOCC3)cc2Cl)c(Cl)c1` [Compound 3034] belongs 111 nM. Same read-out and setting: to `CC(C)(C)c1ccc(-n2nnnc2SCC(=O)Nc2ccc(C(=O)NCc3ccco3)cc2Cl)c(Cl)c1` [Compound 6003] belongs 13 nM; to `CC(C)(C)c1ccc(-n2nnnc2SCC(=O)Nc2ccc(C(=O)NCCC(=O)O)cc2Cl)c(Cl)c1` [Compound 6024], 41 nM; to `COC(=O)c1cccc(-c2ccc(NC(=O)CSc3nnnn3-c3ccc(C)cc3Cl)c(Cl)c2)c1` [Compound 3001], 146 nM. `Cc1ccc(-n2nnnc2SCC(=O)Nc2ccc(-c3cscn3)cc2Cl)c(Cl)c1` [Compound 3014] displayed an IC50 of 142 nM. Same read-out and setting: to `COC(=O)C1CCN(CCOc2ccc(NC(=O)CSc3nnnn3-c3ccc(C(C)(C)C)cc3Cl)c(Cl)c2)CC1` [Compound 3035] belongs 355 nM; to `CC(C)(C)c1ccc(-n2nnnc2SCC(=O)Nc2ccc(-c3ccc(OCC(=O)O)cc3F)cc2Cl)c(Cl)c1` [Compound 3020], 23 nM; to `Cc1ccc(-c2nnsc2SCC(=O)Nc2ccc(-c3ccc(CC(=O)O)cc3)cc2Cl)c(Cl)c1` [Compound 1007], 107 nM.

For `Cc1ccc(-n2nnnc2SCC(=O)Nc2ccc(-c3ccc(OCC(=O)O)cc3)cc2Cl)c(Cl)c1` [Compound 2007], the IC50 amounted to 22 nM. On the same count and under the same terms, to `Cc1ccc(-n2nccc2OCC(=O)Nc2ccc(-c3ccc(CC(=O)O)cc3)cc2Cl)c(Cl)c1` [Compound 1003] belongs 770 nM. Still for that read-out and setting: to `O=C(CSc1nnnn1-c1ccc(C2CC2)cc1Cl)Nc1ccc(-c2ccc(OCCN3CCCCC3)cc2)c(F)c1Cl` [Compound 2051] belongs 30.5 nM. Regarding `O=C(O)Cc1ccc(-c2ccc(NC(=O)CSc3nnnn3-c3ccc4ncsc4c3Cl)c(Cl)c2)cc1` [Compound 2035], half-maximal inhibition (IC50) was put at 269 nM. Regarding `O=C(O)Cc1ccc(-c2ccc(NC(=O)CSc3nnnn3-c3ccc(C(F)(F)F)cc3Cl)c(Cl)c2)cc1` [Compound 2023], it took 169 nM to reach half-maximal inhibition (IC50). `CC(C)(C)c1ccc(-n2nnnc2SCC(=O)Nc2ccc(OCC(=O)Nc3cccc(O)c3)cc2Cl)c(Cl)c1` [Compound 5011] had a 50% inhibitory concentration (IC50) of 69 nM.

Compound `CC(C)(C)c1ccc(-n2nnnc2SCC(=O)Nc2ccc(S(=O)(=O)Nc3ccccc3)cc2Cl)c(Cl)c1` [Compound 3026] registered an IC50 of 423 nM. On the same count and under the same terms, to `O=C(CSc1nnnn1-c1ccc(C2CC2)cc1Cl)Nc1ccc(C(=O)NCc2cccc[n+]2[O-])cc1Cl` [Compound 6038] belongs 64.5 nM; to `Cc1ccc(-n2nnnc2SCC(=O)Nc2ccc(-c3csc(N)n3)cc2Cl)c(Cl)c1` [Compound 3015], 185 nM. `COC(=O)Cc1ccc(-c2ccc(NC(=O)CSc3nnnn3-c3ccc(C)cc3Cl)c([N+](=O)[O-])c2)cc1` [Compound 2010]: the IC50 came to 40 nM. On the same count and under the same terms, to `CC(C)(C#Cc1ccc(NC(=O)CSc2nnc(C(F)(F)F)n2-c2ccc(C3CC3)cc2Cl)c(Cl)c1)C(=O)O` [Compound 1017] belongs 72 nM. Same read-out and setting: the figure for `CC(C)(C)c1ccc(-n2nnnc2SCC(=O)Nc2ccc(C(=O)Nc3ccc(CCC(=O)O)cc3)cc2Cl)c(Cl)c1` [Compound 6031] is 29.5 nM; for `CC(C)(C)c1ccc(-n2nnnc2SCC(=O)Nc2ccc(OCC(=O)NCc3ccc(C(=O)O)cc3)cc2Cl)c(Cl)c1` [Compound 5027] it is 51 nM; for `Cc1ccc(-n2nnnc2SCC(=O)Nc2ccc(-c3cocn3)cc2Cl)c(Cl)c1` [Compound 3016] it is 359 nM.
